Data on two compounds can be found in patent publication US4514330A, “Carbon-7-substituted atinomycin D analogue” (Trustees of Boston University, priority 1983, dated 1985).

Series [1] is described as follows: In vivo metabolic transformation and urinary excretion. The arrangement: species or system rat. To be noted: metabolites as conjugates of 4b. Here is the method: The therapeutic indexes of both 3b and 4b in qd 1-4 and q4d 1, 5, 9 schedules of treatment are calculated and expressed in Table IV. […] These and other unidentified polar metabolites are excreted at about two to three times the rate of AMD in rat urine. This process of in vivo metabolic transformation and fast excretion appears to play a major role in reducing the in vivo toxicity factor of 3b and 4b.

In the next series the test system is normal CDF1 male mice. Nature of the series: Maximum tolerated dose (LD10) in normal, tumor-free CDF1 male mice. It counts as in vivo. As to conditions: for MTD (maximum tolerated dose, lethal for 10% of normal mice; = LD10): deaths during 21 days; for MTD dose as multiple of the MTD dose for AMD: q4d 1, 5, 9 schedule; for fold less toxic than AMD: qd 1-4 schedule. As to the method: ^c MTD (maximum tolerated dose) is the lethal dose
(milligrams/kilogram) for 10% normal CDF1 male mice (18-23 g);
were calculated from a plot of log dose vs. percent mortality. Average of
two to three experiments.
Biological Experiments. Determination of LD10 Values. Tumor-free CDF1 male mice weighing 18-23 g were given a broad range of doses of drugs in 10% dimethyl sulfoxide-saline on either days 1, 5 and 9 or on 4 successive days. Drugs were administered intraperitoneally (ip).
The maximum tolerated doses of AMD and analogues that caused deaths in only 10% of the tested animals in 21 days were recorded as MTD. The results are an average of two experiments in each. The MTD values obtained following schedules q4d 1, 5, 9 (three injections) and qd 1-4 (four injections) are recorded in Table IV. These doses are the same as LD10 (lethal dose of 10% of tumor-free animals in 21 days).

The next series relates to DNA. Nature of the series: Thermal denaturation of DNA (ΔTm), stabilization of DNA helical structure on drug binding. The arrangement: species or system calf thymus. As to conditions: for DNA melting profile / ΔTm character of the DNA complex: thermal denaturation, words. Here is the method: Thermal denaturation studies were carried out according to the procedure described in J. Med. Chem., Vol. 24, p. 1052 (1981). The ΔTm values in Table II give a measure of stabilization of DNA helical structure as a consequence of drug binding.
^a ΔTm = m of DNAdrug complex minus m of DNA.
Concentraiton of drug, 1.4 × 10^-4 M; of DNA (P), 1.4 ×
10^-3 M in 0.01 M phosphate buffer (pH 7.0), 5 × 10^-3 M in
EDTA and 5% dimethyl sulfoxide.
^d Highest dose tested. These values are derived at high temperatur
(67°-75° C.) and may not always correlate with the results
of other DNA-binding studies (e.g., absorptiometric or circular dichroic).
Melting points were obtained with a Thomas-Hoover melting point apparatus at a heating rate of 2° C./min. Column chromatography was accomplished with silica gel powder (Baker No. 3405, 60-20 mesh) or acid alumina (Woelm grade 1). Limited gel-filtration work was done on Sephadex LH-20, particle size 25-100 μm (Pharmacia Fine Chemicals). Thin-layer chromatography was performed on silica gel plates (E. M. Laboratories, Inc.). Solvent systems used were (A) butanol-formic acid-H2 O (75:13:12), (B) EtOAc-acetone (3:1), and (C) Cifferri, the organic phase of the mixture EtOAc-MeOH-H2 O (20:1:20). High-performance liquid chromatography was carried out on a Varian Model 5020 gradient liquid chromatograph equipped with CD-111L chromatography data system and fitted with Varian reversed-phase C18 column with isocratic solvent systems, CH3 -CN-5 mM NH4 OAc buffer, pH 6.4 (68:32 or 62:38), pressure 80-140 atm, flow rate 1.5 mL/min, with UV-visible variable and fixed wavelength dual detectors at 254 and 466 nm. Spectra were determined on the following instruments: IR spectra were obtained with a Perkin-Elmer Model 237 Infra Cord with KBr micropellets or chloroform solutions; UV-visible spectra were obtained on a Gilford 250 spectrophotometer, which, with the addition of a base-line reference compensator (Analog Multiplexer 6064) and thermoprogrammer, auto four cell programmer and thermoelectric cell holder 2577, was used to obtain thermal denaturation curves; NMR spectra were obtained on a JOEL FQ-90-90MHZ spectrometer equipped with Fourier transform; and CD spectra were obtained on a Cary 61 spectrophotometer. All elemental analyses were within ±0.4% of the theoretical values. Actinomycin D, batch no. NCS 3053, lot L554651-0-10, was provided by Natural Products Branch, National Cancer Institute, Silver Spring, Md. Calf thymus DNA type 1 was purchased from Sigma Chemical Co.

A further series concerns calf thymus DNA. Briefly: DNA binding by visible absorption and CD spectra of DNA (P)-drug complex. To be noted: mole ratio DNA (P)/analogue = 10:1; 3b, 4b and 5b compared; 1.0×10^-5 M, pH 7. The text has this:
In FIG. 1, absorption (top) and circular dichroism (bottom) spectra in 0.01 M phosphate buffer (pH7) containing EDTA (10^-5 M) and Me2 SO (5%): 3b (...), 4b (---), 5b (--). Concentration of drug in each case was 1.0×10^-5 M. In this respect, they are almost indistinguishable from the known analogue 7-methoxyactinomycin D (5b), whose structure and physical properties we have previously reported. The absorption spectra of all these analogues in aqueous buffer are also almost superimposable. […] The absorption spectrum of the analogues above 240 nm is mainly due to the electronic configuration of the tricyclic chromophore. The CD spectrum in the same wavelength region is an indicator of peptide conformation in actinomycin analogues, because it is the peptide lactone ring that confers optical activity on the nearly planar chromophore. The nature of the CD spectra (3b, 4b and 5b) asserts that in these analogues there is an identical relationship between the chromophores and peptide lactones. This relationship is very important, because during binding to DNA, AMD and some analogues are known to rely on the cooperative role between the chromophore and the peptide lactones for their highly specific DNA-binding property.
Any change in the configurations of the peptide lactones on binding to DNA is generally expressed in the CD spectra of the analogue-DNA complexes. […] The changes in the visible absorption spectra of 3b, 4b and 5b and also their CD spectra observed after adding calf thymus DNA [mole ratio of DNA (P)/analogue=10:1] are identical (FIG. 2). In FIG. 2, the absorption (top) and CD spectra of the DNA (P)-drug complex (ratio 10:1). Concentrations, buffer and line types are as in FIG. 1.

Where [2] appears, read: three injections ip, q4d 1, 5, 9.

Regarding `Cc1c2oc3c(C)c(OCC(O)CO)cc(C(=O)N[C@@H]4C(=O)N[C@H](C(C)C)C(=O)N5CCC[C@H]5C(=O)N(C)CC(=O)N(C)[C@@H](C(C)C)C(=O)O[C@@H]4C)c3nc-2c(C(=O)N[C@@H]2C(=O)N[C@H](C(C)C)C(=O)N3CCC[C@H]3C(=O)N(C)CC(=O)N(C)[C@@H](C(C)C)C(=O)O[C@@H]2C)c(N)c1=O` (stereo partly drawn) [Compound 4b, 7-(2,3-Dihydroxypropoxy) actinomycin D], in series [1], the “in vivo metabolic transformation” value is given as “transformed in vivo to highly polar metabolites”. Besides, in the series with normal CDF1 male mice (four injections ip, qd 1-4), the “MTD (maximum tolerated dose, lethal for 10% of normal mice; = LD10)” value is listed as 1.4 milligrams/kilogram. In the series on normal CDF1 male mice, the “MTD dose as multiple of the MTD dose for AMD” value was 7 fold and the “fold less toxic than AMD” value was 9 fold. Besides, in the series with normal CDF1 male mice (setting [2]), the “MTD (maximum tolerated dose, lethal for 10% of normal mice; = LD10)” value is given as 1.8 milligrams/kilogram. For the same compound, the “Tm (ΔTm = Tm of DNA-drug complex minus Tm of DNA)” value with DNA (drug 1.4 × 10^-4 M, DNA (P) 1.4 × 10^-3 M, 0.01 M phosphate buffer pH 7.0, EDTA, 5% dimethyl sulfoxide) amounted to 5.1 ± 0.15 °C. In addition, the “DNA melting profile / ΔTm character of the DNA complex” value in the series on DNA is “sharp and smooth”. Moreover, the “changes in visible absorption and CD spectra after adding calf thymus DNA” value in the series on calf thymus DNA is listed as “identical”.

Turning to `Cc1c2oc3c(C)c(OCC4CO4)cc(C(=O)N[C@@H]4C(=O)N[C@H](C(C)C)C(=O)N5CCC[C@H]5C(=O)N(C)CC(=O)N(C)[C@@H](C(C)C)C(=O)O[C@@H]4C)c3nc-2c(C(=O)N[C@@H]2C(=O)N[C@H](C(C)C)C(=O)N3CCC[C@H]3C(=O)N(C)CC(=O)N(C)[C@@H](C(C)C)C(=O)O[C@@H]2C)c(N)c1=O` (stereo partly drawn) [Compound 3b, 7-(2,3-Epoxypropoxy)actinomycin D], the “in vivo metabolic transformation” value in series [1] is recorded as “transformed in vivo to highly polar metabolites”. Also, the “MTD (maximum tolerated dose, lethal for 10% of normal mice; = LD10)” value with normal CDF1 male mice (four injections ip, qd 1-4) was found to be 1.6 milligrams/kilogram. Moreover, in the series with normal CDF1 male mice, the “MTD dose as multiple of the MTD dose for AMD” value is reported as 14 fold and the “fold less toxic than AMD” value is listed as 11 fold. For the same compound, in the series on normal CDF1 male mice (setting [2]), the “MTD (maximum tolerated dose, lethal for 10% of normal mice; = LD10)” value is 3.6 milligrams/kilogram. Also, the “DNA melting profile / ΔTm character of the DNA complex” value in the series with DNA is given as “very broad”. Moreover, the “changes in visible absorption and CD spectra after adding calf thymus DNA” value in the series with calf thymus DNA is “identical”.
